Test results from patent US20180117082A1, “ANTIFUNGAL COMPOSITION/TREATMENT” (THE UNIVERSITY OF NOTTINGHAM, priority 2015, published 2018).

Key:
[1] = system: Zygosaccharomyces bailii; test: Growth inhibition assay on solid medium, spotted serial dilutions; format: cell-based; conditions: same concentrations as in the combinations, each agent alone (FIG. 2A)
Excerpt: Images were captured after 2 d (YEPD) or 3 d (YNB) growth at 30 C. For growth-inhibition assays on solid medium with R. solani, circular sections of ˜0.5 cm diameter were excised from cultures on PDA and transferred to the centre of fresh plates. Images were captured after 3 d growth at 28 C and the total mycelial area determined using ImageJ and GIMP2 software. Where specified, chemical supplements were included in the solid media.

[2] = system: R. solani; test: Growth inhibition assay in PDB medium (OD600); conditions: same concentrations as in the combinations (FIG. 6, FIG. 7)
Protocol: (§1) Candida spp. or S. cerevisiae were inoculated from YEPD plates to YEPD broth (composition as above, minus agar) and cultured overnight at 30° C., 120 rev min^−1. Overnight cultures were diluted to OD600˜0.5 and cultured for a further 4 h in fresh YEPD before dilution of these experimental cultures to OD600˜0.01 or ˜0.1 in the same medium. Aliquots (300 μl) of the diluted culture plus any chemical supplements (see above), as specified, were transferred to 48-well plates (Greiner Bio-One). OD600 was monitored continuously in a BioTek Powerwave-XS microplate spectrophotometer, with shaking at 30 C. […] Spores of R. solani or Z. tritici were inoculated from PDA plates to potato dextrose broth (PDB; Fluka) (20,000 spores ml^−1). Aliquots (150 μl) of the diluted culture plus any chemical supplements, as specified, were transferred to 96-well plates (Greiner Bio-one) and cultured over 8 d at 24° C., 120 rev min-1. OD600 was monitored every day in a BioTek EL800 microplate spectrophotometer.

[3] = system: Rhizoctonia solani; test: Growth inhibition assay on solid medium (PDA agar), mycelial outgrowth; format: cell-based; conditions: 300 μg ml^−1 paromomycin or 15 mM molybdate alone (FIG. 2B)
Protocol: For qualitative growth-inhibition assays with yeasts on solid medium, experimental cultures prepared as described above were adjusted to OD600˜2.0, 0.2, 0.02, 0.002, 0.0002 and the dilution series spotted (4 μl) on to either YEPD agar (above) or yeast nitrogen base (YNB) agar: 0.69% (w/v) yeast nitrogen base without amino acids (Formedium; Norfolk, UK) supplemented with 2% (w/v) D-glucose, 0.06 mg ml^−1 leucine, 0.02 mg ml^−1 histidine, 0.02 mg ml^−1 uracil and 2% (w/v) bacteriological agar (Sigma-Aldrich). Images were captured after 2 d (YEPD) or 3 d (YNB) growth at 30 C. For growth-inhibition assays on solid medium with R. solani, circular sections of ˜0.5 cm diameter were excised from cultures on PDA and transferred to the centre of fresh plates. Images were captured after 3 d growth at 28 C and the total mycelial area determined using ImageJ and GIMP2 software. Where specified, chemical supplements were included in the solid media.

[4] = system: Candida albicans; test: Growth inhibition assay in YEPD broth (OD600); format: cell-based; conditions: 25 μM chromate, 200 μg ml^−1 paromomycin or 10 μg ml^−1 hygromycin, each alone (FIG. 1A)
Protocol: as §1

Structure (SMILES) | effect on growth, agent alone [1] | inhibitory effect, agent individually [2] | growth-inhibitory effect, agent alone [3] | inhibitory effect on growth, agent alone [4]
O=S(=O)(O)c1cc(N=C=S)ccc1C=Cc1ccc(N=C=S)cc1S(=O)(=O)O [DIDS, 4,4′-diisothio-cyanotostilbene-2,2′-disulphonate] | neither agent alone had a significant effect on growth |  |  | 
[Cu] [copper] |  | none of these agents had an inhibitory effect individually |  | 
[O]=[Mo](=[O])([O-])[O-] [molybdate] | neither agent alone had a significant effect on growth |  | neither agent alone had a marked growth-inhibitory effect | 
CCC[C@H](N)C(=O)O [norvaline] |  | none of these agents had an inhibitory effect individually |  | 
NC[C@@H]1O[C@H](O[C@H]2[C@@H](O)[C@H](O[C@@H]3[C@@H](O)[C@H](N)C[C@H](N)[C@H]3O[C@H]3O[C@H](CO)[C@@H](O)[C@H](O)[C@H]3N)O[C@@H]2CO)[C@H](N)[C@@H](O)[C@@H]1O [paromomycin] | neither agent alone had a significant effect on growth |  | neither agent alone had a marked growth-inhibitory effect | no discernible inhibitory effect
O=[Se](=O)(O)O [selenate] |  | none of these agents had an inhibitory effect individually |  | 
CN(C)C(=S)SSC(=S)N(C)C [thiram] |  | none of these agents had an inhibitory effect individually |  | 
